The data set is described as follows: Oral bioavailability in Beagle dogs (plasma concentration of relebactam). It is filed as in vivo. To be noted: male Beagle dogs, IV bolus, mean. On the procedure: The oral bioavailability of certain relebactam prodrugs provided by the present disclosure in Beagle dogs was evaluated.
Dosing formulations are prepared on the day of dosing. Intravenous formulations are prepared under aseptic conditions, sterile filtered, and brought to room temperature prior to dosing. The intravenous formulation included relebactam at a final concentration of 2.8 mg/mL in PBS at pH 7.5.
The formulations were administered to male Beagle dogs weighing about 10 kg. The animals were maintained in accordance with the Guide for the Care and Use of Laboratory Animals, National Research Council, The National Academies Press, Washington, DC, 2011.
The dogs received either an IV bolus dose of 9.9 mg/kg, or a peroral dose of 22 mg/kg (Compound 87) or 20.0 mg/kg (Compound 88). […]
The plasma concentration of relebactam was measured at intervals following administration. […] The relebactam concentration was determined using LC/MS/MS.
The area under the concentration vs. time curves (AUC) was calculated using the linear/log trapezoidal method with linear interpolation. The percent oral bioavailability (% F) of relebactam was determined by comparing the AUC following oral administration with the AUC following IV administration on a dose normalized basis.

A word on the AUC(0-inf): it is total exposure, with the tail of the curve extrapolated.

In the case of `O=C(NC1CCNCC1)[C@@H]1CC[C@@H]2CN1C(=O)N2OS(=O)(=O)O` [relebactam], the AUC(0-inf) (dog, nominal dose 10.0 mg/kg (administered 9.88 mg/kg)) came to 29400 ng·h/mL. For the same compound, the AUC0-inf/D (relebactam-equivalent dose 9.88 mg/kg) is recorded as 2974.

The values above are taken from patent US11180500B2, “Derivatives of relebactam and uses thereof” (ARIXA PHARMACEUTICALS, INC., priority 2018, dated 2021).
